{"source": "patent EP0783319B1", "about": "“MURAMYL PEPTIDE COMPOSITIONS FOR INHIBITING HIV REPLICATION” (VACSYN S.A., priority 1994, dated 1996)", "key": {"macrophages de cobayes": {"test_system": "macrophages de cobayes", "conditions": "guinea pig macrophages; cited from earlier work"}, "HIV": {"test_system": "HIV", "conditions": "in vitro, 1000 µg/ml; cited from earlier work"}, "VIH (HTLV III Ba-L)": {"test_system": "VIH (HTLV III Ba-L)", "test": "HIV replication in primary human monocyte cultures (viral protein P24 in supernatants, day 7)", "assay_type": "cell-based", "conditions": "P24 at day 7", "text": "L'exemple 2 démontre l'effet du Murabutide et du Muramétide sur le niveau de réplication du VIH dans des cultures primaires de monocytes humains prélevés sur des volontaires sains. Des cultures monocytaires ont été infectées au jour 0 par une source VIH (HTLV III Ba-L) qui présente un tropisme pour les monocytes. Certaines cultures furent traitées par différentes concentrations des composés soit 1 jour avant, soit le même jour, soit 1 jour après l'inoculation par le VIH. La réplication du virus a été évaluée au jour 7 par la mesure de la quantité de protéine virale P24 dans les surnageants comme décrite dans Blood, Vol.76, page 1490-1493, 1990."}, "macrophages": {"test_system": "macrophages", "test": "Macrophage proliferation in cultured donor monocytes (3H-thymidine incorporation)", "assay_type": "cell-based, humains", "conditions": "for inhibition de la prolifération des macrophages stimulées par la combinaison IL-3/GM-CSF / inhibition de la prolifération des macrophages stimulées par l'IL-3: 1 µg/ml, compound added one day before 3H-thymidine, 5-day culture; for inhibition de la prolifération des macrophages stimulées par la combinaison IL-3/GM-CSF: rh IL-3 + rh GM-CSF stimulated; for inhibition de la prolifération des macrophages stimulées par l'IL-3: rh IL-3 stimulated; for inhibition de la prolifération spontanée: no stimulation", "text": "Pour cela, des monocytes prélevés chez un donneur sont mis en culture pendant 5 jours soit a) sans stimulation (afin d'évaluer leur niveau de prolifération spontanée) soit b) en présence d'interleukine 3 recombinante humaine (rh IL-3) soit c) en présence et de rh IL-3 et de rh GM-CSF \"granulocyte-macrophage colony stimulating factor\" recombinant humain. […] Les composés de l'invention sont ajoutés au milieu de culture un jour avant l'addition de thymidine tritiée (^3H-thymidine). Les cellules en voie de division incorporent cette thymidine. Les cellules (qui se sont différenciées en macrophages pendant la durée de la culture) sont recueillies et lavées, et on évalue le niveau de prolifération en mesurant dans un compteur beta, la quantité de ^3H incorporée suivant des méthodes classiques telles que décrites dans Blood, Vol. 76, pages 1490-1493, 1990."}, "[1]": {"parameters": "species or system homme", "conditions": "in vivo", "text": "Des composés préférés pour l'utilisation selon l'invention sont le Murabutide (Nac-Mur-L-Ala-DGln OnC4H9) et le Muramétide (Nac-Mur-L-Ala-DGln OMe)."}}}
{"smiles": "CC(=O)N[C@H]1C(O)O[C@H](CO)[C@@H](O)[C@@H]1O[C@H](C)C(=O)N[C@@H](C)C(=O)N[C@H](CCC(=O)O)C(N)=O", "note": "(stereo partly drawn) [MDP, N-acétyl-muramyl-L-alanyl-D- Isoglutamine]", "values": [{"measurement": "inhibition de la prolifération des macrophages", "setting": "macrophages de cobayes", "value": "inhiber la prolifération des macrophages de cobayes"}, {"measurement": "inhibition de la réplication de HIV", "setting": "HIV", "value": "inhiber partiellement la réplication de HIV"}]}
{"smiles": "CCCCOC(=O)[C@@H](CCC(N)=O)NC(=O)[C@H](C)NC(=O)[C@@H](C)O[C@H]1[C@H](O)[C@@H](CO)OC(O)[C@@H]1NC(C)=O", "note": "(stereo partly drawn) [Murabutide, Nac-Mur-L-Ala-DGln OnC4H9]", "values": [{"measurement": "inhibition de la réplication virale", "setting": "VIH (HTLV III Ba-L); 10 à 50 µg/ml, treatment on day -1, day 0 or day +1 relative to infection", "value": "inhibe complètement la réplication virale"}, {"measurement": "inhibition de la prolifération des macrophages stimulées par la combinaison IL-3/GM-CSF", "setting": "macrophages", "value": "inhiber la prolifération des macrophages"}, {"measurement": "inhibition de la prolifération des macrophages stimulées par l'IL-3", "setting": "macrophages", "value": "inhiber la prolifération des macrophages"}, {"measurement": "inhibition de la prolifération spontanée", "setting": "macrophages; 10 µg/ml", "value": "inhibition de la prolifération spontanée a été observé"}, {"measurement": "effets secondaires", "setting": "[1]", "value": "dénuées d'effets secondaires"}, {"measurement": "tolérance", "setting": "[1]", "value": "très bonne tolérance"}]}
{"smiles": "COC(=O)[C@@H](CCC(N)=O)NC(=O)[C@H](C)NC(=O)[C@@H](C)O[C@H]1[C@H](O)[C@@H](CO)OC(O)[C@@H]1NC(C)=O", "note": "(stereo partly drawn) [Muramétide, Nac-Mur-L-Ala-DGln OMe]", "values": [{"measurement": "inhibition at 50 µg/mL", "setting": "VIH (HTLV III Ba-L); Human immunodeficiency virus 1, BAL, Monocyte, 168 h, 50 µg/ml, whatever the time of treatment (day -1, 0 or +1), read-out: suppression de la réplication virale", "value": 100, "unit": "%"}, {"measurement": "suppression de la réplication virale", "setting": "VIH (HTLV III Ba-L); different concentrations, treatment day -1, 0 or +1", "value": "suppression hautement significative de la réplication virale"}, {"measurement": "inhibition de la prolifération des macrophages stimulées par la combinaison IL-3/GM-CSF", "setting": "macrophages", "value": "inhiber la prolifération des macrophages"}, {"measurement": "inhibition de la prolifération des macrophages stimulées par l'IL-3", "setting": "macrophages", "value": "inhiber la prolifération des macrophages"}, {"measurement": "inhibition de la prolifération spontanée", "setting": "macrophages; 10 µg/ml", "value": "inhibition de la prolifération spontanée a été observé"}, {"measurement": "inhibition de la prolifération spontanée", "setting": "macrophages; 50 µg/ml", "value": "inhibition de la prolifération spontanée a été observé"}, {"measurement": "effets secondaires", "setting": "[1]", "value": "dénuées d'effets secondaires"}, {"measurement": "tolérance", "setting": "[1]", "value": "très bonne tolérance"}]}
